{"source": "paper PMC6855808", "about": "“Direct binding of phosphatidylglycerol at specific sites modulates desensitization of a ligand-gated ion channel” (eLife, 2019)", "key": {"[1]": {"system": "ELIC WT", "assay": "Native MS phospholipid binding to delipidated ELIC in C10E5", "parameters": "species or system Erwinia chrysanthemi", "description": "(§1) Native MS analysis was similar to previous descriptions for other membrane proteins ([Gault et al., 2016]). For analysis of ELIC in DDM, 30 μl of purified protein in 0.02% DDM at ~1 mg/ml was buffer exchanged into 200 mM ammonium acetate pH 7.5% and 0.02% DDM using Biospin six gel filtration spin columns (Bio-Rad, Hercules, CA). 2 μl of buffer exchanged ELIC was loaded into a borosilicate capillary emitter (Thermo Scientific, Waltham, MA), and analyzed by static nanospray on a Thermo QExactive EMR mass spectrometer. The following parameters were used to resolve the ELIC pentamer and minimize dissociation into tetramer and monomer: capillary voltage of 1.2 kV, capillary temperature of 200°C, ion transfer optics set with the injection flatapole, inter-flatapole lens, bent flatapole, transfer multiple as 8, 7, 6, 4 V, respectively, resolution 8,750, AGC target 3 × 10^6, trap pressure set to maximum, CID 200 V, and CE 100 V. For analysis of ELIC in C10E5, ELIC delipidated by injecting 300 μg onto a Sephadex 200 10/300 column (GE Healthcare) at 0.5 ml/min pre-equilibrated with Buffer A, 10% glycerol, and 0.06% C10E5 (Anatrace). 30 μl aliquots were then buffer exchanged to 100 mM ammonium acetate pH 7.5, 0.06% C10E5 using Biospin six columns, and diluted to 0.2 mg/ml. MS measurements on the QExactive EMR were performed with the parameters listed above except: capillary temperature 100°C, CID 75 V and CE 200 V. For lipid binding measurements, stocks of POPG lipid were prepared at 2× the concentration of POPG being tested in 100 mM ammonium acetate pH 7.5% and 0.06% C10E5. Lipid stocks were then mixed with 0.4 mg/ml ELIC in a 1:1 vol ratio for a final concentration of 1 μM ELIC, and samples were analyzed after >5 min incubation.\n(§2) MS spectra were deconvoluted using UniDec ([Marty et al., 2015]); deconvolution of spectra with bound lipid was restricted to the 26+ to 22+ charge states (Figure 1—figure supplement 3). Peak heights of apo and lipid-bound species were extracted from UniDec, and analyzed by two approaches. The average number of bound lipids was determined by the following relationship:(1) Averagenumberboundlipid=∑n=0kn\\cdot In/∑n=0kIn where n is the number of bound lipids and In is the deconvoluted peak height of ELIC with n bound lipids. Peak heights of apo and lipid-bound species were also plotted as mole fraction versus the number of bound lipids (Figure 1—figure supplement 4).\n(§3) Then, the probability (B) that q sites are occupied out of N total sites is given by the binomial probability function:(3) Bq=N!/q!N-q!p^N-q(1-p)^q\n(§4) B(q) was used to determine the mole fraction of each lipid-bound species at a given [A], which was used to fit the native MS data in Excel across all [A] by setting K constant and varying N or vice versa."}, "[2]": {"target": "T1, ELIC R117Q/R299Q (Dickeya chrysanthemi, UniProt P0C7B7, R117Q/R298Q)", "T1 construct": "MBP (N, cleaved yes); made in house; host or cells: OverExpress C43 (DE3) E. coli", "T1 sequence (P0C7B7 whole entry R117Q/R298Q)": "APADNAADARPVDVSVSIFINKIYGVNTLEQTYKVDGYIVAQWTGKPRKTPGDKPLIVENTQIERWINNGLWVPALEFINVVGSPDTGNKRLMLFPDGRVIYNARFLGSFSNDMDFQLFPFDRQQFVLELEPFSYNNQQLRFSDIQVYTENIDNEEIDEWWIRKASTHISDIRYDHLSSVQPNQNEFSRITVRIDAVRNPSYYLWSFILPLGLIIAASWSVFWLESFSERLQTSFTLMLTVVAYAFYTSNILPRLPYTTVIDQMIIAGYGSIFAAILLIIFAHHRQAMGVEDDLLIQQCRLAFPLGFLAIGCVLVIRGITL", "assay": "Native MS POPG binding, mutant", "parameters": "species or system Erwinia chrysanthemi", "settings": "binomial fit, N varied; 12 μM POPG", "description": "as §1, §2, §3, §4"}, "[3]": {"target": "T2, ELIC R123Q/R299Q (Dickeya chrysanthemi, UniProt P0C7B7, R123Q/R298Q)", "T2 construct": "MBP (N, cleaved yes); made in house; host or cells: OverExpress C43 (DE3) E. coli", "T2 sequence (P0C7B7 whole entry R123Q/R298Q)": "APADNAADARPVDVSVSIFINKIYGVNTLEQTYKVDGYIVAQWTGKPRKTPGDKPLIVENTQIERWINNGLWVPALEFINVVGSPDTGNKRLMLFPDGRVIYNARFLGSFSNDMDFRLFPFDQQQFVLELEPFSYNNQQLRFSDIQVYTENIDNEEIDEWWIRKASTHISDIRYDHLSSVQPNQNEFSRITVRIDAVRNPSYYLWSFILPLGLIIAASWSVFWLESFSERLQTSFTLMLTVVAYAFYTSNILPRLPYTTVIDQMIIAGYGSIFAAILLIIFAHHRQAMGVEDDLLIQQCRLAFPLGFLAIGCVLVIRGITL", "assay": "Native MS POPG binding, mutant", "parameters": "species or system Erwinia chrysanthemi", "settings": "binomial fit, N varied; 12 μM POPG", "description": "as §1, §2, §3, §4"}, "[4]": {"target": "T3, ELIC R286Q (Dickeya chrysanthemi, UniProt P0C7B7, R285Q)", "T3 construct": "MBP (N, cleaved yes); made in house; host or cells: OverExpress C43 (DE3) E. coli", "T3 sequence (P0C7B7 whole entry R285Q)": "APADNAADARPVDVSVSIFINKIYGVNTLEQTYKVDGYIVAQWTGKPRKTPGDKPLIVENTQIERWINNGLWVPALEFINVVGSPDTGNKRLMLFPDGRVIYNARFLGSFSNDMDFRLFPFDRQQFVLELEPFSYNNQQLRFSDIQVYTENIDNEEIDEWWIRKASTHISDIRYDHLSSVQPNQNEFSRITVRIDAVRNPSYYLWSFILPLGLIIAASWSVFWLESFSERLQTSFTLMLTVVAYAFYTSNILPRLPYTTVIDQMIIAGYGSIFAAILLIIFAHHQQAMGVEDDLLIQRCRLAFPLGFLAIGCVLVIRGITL", "assay": "Native MS POPG binding, mutant", "parameters": "species or system Erwinia chrysanthemi", "settings": "binomial fit, N varied; 12 μM POPG", "description": "as §1, §2, §3, §4"}, "[5]": {"target": "T4, ELIC R286Q/R299Q (Dickeya chrysanthemi, UniProt P0C7B7, R285Q/R298Q)", "T4 construct": "MBP (N, cleaved yes); made in house; host or cells: OverExpress C43 (DE3) E. coli", "T4 sequence (P0C7B7 whole entry R285Q/R298Q)": "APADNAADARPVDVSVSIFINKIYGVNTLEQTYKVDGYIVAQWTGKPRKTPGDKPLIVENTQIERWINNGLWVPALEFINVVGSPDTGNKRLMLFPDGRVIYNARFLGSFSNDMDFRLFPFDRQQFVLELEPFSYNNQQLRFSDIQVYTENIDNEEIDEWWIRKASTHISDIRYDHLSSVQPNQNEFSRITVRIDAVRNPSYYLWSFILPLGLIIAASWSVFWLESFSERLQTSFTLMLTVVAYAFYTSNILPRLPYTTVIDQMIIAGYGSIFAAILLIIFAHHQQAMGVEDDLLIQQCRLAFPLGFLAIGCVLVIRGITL", "assay": "Native MS POPG binding, mutant", "parameters": "species or system Erwinia chrysanthemi", "settings": "binomial fit, N varied; 12 μM POPG", "description": "as §1, §2, §3, §4"}, "[6]": {"target": "T5, ELIC R299Q (Dickeya chrysanthemi, UniProt P0C7B7, R298Q)", "T5 construct": "MBP (N, cleaved yes); made in house; host or cells: OverExpress C43 (DE3) E. coli", "T5 sequence (P0C7B7 whole entry R298Q)": "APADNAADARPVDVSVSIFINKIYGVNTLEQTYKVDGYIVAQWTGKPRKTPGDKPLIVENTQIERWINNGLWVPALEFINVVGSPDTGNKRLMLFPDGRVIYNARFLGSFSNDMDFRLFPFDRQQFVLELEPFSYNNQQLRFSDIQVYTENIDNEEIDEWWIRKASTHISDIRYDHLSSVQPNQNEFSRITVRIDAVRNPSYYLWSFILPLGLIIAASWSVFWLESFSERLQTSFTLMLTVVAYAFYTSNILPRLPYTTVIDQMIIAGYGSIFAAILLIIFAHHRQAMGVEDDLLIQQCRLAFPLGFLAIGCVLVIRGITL", "assay": "Native MS POPG binding, mutant", "parameters": "species or system Erwinia chrysanthemi", "settings": "binomial fit, N varied; 12 μM POPG", "description": "as §1, §2, §3, §4"}, "[7]": {"target": "T6, ELIC R301Q/R299Q (Dickeya chrysanthemi, UniProt P0C7B7, R298Q/R300Q)", "T6 construct": "MBP (N, cleaved yes); made in house; host or cells: OverExpress C43 (DE3) E. coli", "T6 sequence (P0C7B7 whole entry R298Q/R300Q)": "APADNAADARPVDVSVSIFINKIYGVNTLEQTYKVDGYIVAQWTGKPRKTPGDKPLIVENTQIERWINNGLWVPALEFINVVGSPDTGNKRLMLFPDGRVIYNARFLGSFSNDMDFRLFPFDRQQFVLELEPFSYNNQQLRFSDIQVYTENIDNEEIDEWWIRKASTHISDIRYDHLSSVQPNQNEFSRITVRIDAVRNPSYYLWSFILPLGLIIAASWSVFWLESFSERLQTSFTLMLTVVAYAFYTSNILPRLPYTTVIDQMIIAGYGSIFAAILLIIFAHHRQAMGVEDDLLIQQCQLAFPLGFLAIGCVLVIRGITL", "assay": "Native MS POPG binding, mutant", "parameters": "species or system Erwinia chrysanthemi", "settings": "binomial fit, N varied; 12 μM POPG", "description": "as §1, §2, §3, §4"}, "[8]": {"target": "T7, ELIC L238A (Dickeya chrysanthemi, UniProt P0C7B7, L237A)", "T7 construct": "MBP (N, cleaved yes); made in house; host or cells: OverExpress C43 (DE3) E. coli", "T7 sequence (P0C7B7 whole entry L237A)": "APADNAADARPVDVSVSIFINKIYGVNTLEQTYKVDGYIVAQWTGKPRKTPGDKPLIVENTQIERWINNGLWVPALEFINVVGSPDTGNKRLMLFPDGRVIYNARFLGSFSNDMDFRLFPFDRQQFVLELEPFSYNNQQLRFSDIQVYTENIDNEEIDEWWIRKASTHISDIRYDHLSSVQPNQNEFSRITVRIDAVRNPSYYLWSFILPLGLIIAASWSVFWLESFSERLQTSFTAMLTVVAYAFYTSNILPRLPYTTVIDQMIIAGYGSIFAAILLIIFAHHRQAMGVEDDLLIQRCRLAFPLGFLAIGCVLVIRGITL", "assay": "Native MS POPG binding, mutant", "parameters": "species or system Erwinia chrysanthemi", "settings": "12 μM POPG", "description": "(§5) Native MS analysis was similar to previous descriptions for other membrane proteins ([Gault et al., 2016]). For analysis of ELIC in DDM, 30 μl of purified protein in 0.02% DDM at ~1 mg/ml was buffer exchanged into 200 mM ammonium acetate pH 7.5% and 0.02% DDM using Biospin six gel filtration spin columns (Bio-Rad, Hercules, CA). 2 μl of buffer exchanged ELIC was loaded into a borosilicate capillary emitter (Thermo Scientific, Waltham, MA), and analyzed by static nanospray on a Thermo QExactive EMR mass spectrometer. […] Lipid stocks were then mixed with 0.4 mg/ml ELIC in a 1:1 vol ratio for a final concentration of 1 μM ELIC, and samples were analyzed after >5 min incubation.\n(§6) MS spectra were deconvoluted using UniDec ([Marty et al., 2015]); deconvolution of spectra with bound lipid was restricted to the 26+ to 22+ charge states (Figure 1—figure supplement 3). Peak heights of apo and lipid-bound species were extracted from UniDec, and analyzed by two approaches. The average number of bound lipids was determined by the following relationship:(1) Averagenumberboundlipid=∑n=0kn\\cdot In/∑n=0kIn where n is the number of bound lipids and In is the deconvoluted peak height of ELIC with n bound lipids. […]"}, "[9]": {"system": "ELIC single mutants (R123Q, R286Q, R299Q)", "assay": "Native MS POPG binding, single arginine mutants as a group", "parameters": "species or system Erwinia chrysanthemi", "settings": "12 μM POPG; not statistically significant", "description": "as §5, §6"}, "[10]": {"system": "ELIC double mutants (arginine mutants in combination with R299Q)", "assay": "Native MS POPG binding, double arginine mutants as a group", "parameters": "species or system Erwinia chrysanthemi", "description": "as §1, with “MS measurements on the QExactive EMR were performed with the parameters listed above except: capillary temperature 100°C, CID 75 V and CE 200 V. For lipid binding measurements, stocks of POPG lipid were prepared at 2× the concentration of POPG being tested in 100 mM ammonium acetate pH 7.5% and 0.06% C10E5.” left out\nas §6"}, "[11]": {"system": "ELIC WT", "assay": "Thermal stability assay (SEC pentamer peak after heating)", "assay_type": "binding, Erwinia chrysanthemi", "description": "Purified WT ELIC in C10E5 (Buffer A, 0.06% C10E5) was diluted to 1 μM in the absence or presence of various concentrations of phospholipid. Samples were analyzed without and with heating in the absence or presence of phospholipid. […] The stabilizing effect of a phospholipid was quantified as the pentamer amplitude in the presence of phospholipid (heated) divided by control (heated)."}, "[12]": {"system": "ELIC WT", "assay": "Excised patch-clamp recordings from giant liposomes", "settings": "30 mM cysteamine; for Desensitization norm current at 20 s: normalized to peak response"}}, "note": "Several values for one entry are separate records, joined by “and”; a condition that tells them apart may be missing. Equal values may be shown once."}
{"smiles": "CCCCCCCC/C=C\\CCCCCCCC(=O)OC(COC(=O)CCCCCCCCCCCCCCC)COP(=O)(O)OCC(O)CO", "note": "(centres unmarked) [POPG, 1-palmitoyl-2-oleoyl-phosphatidylglycerol]", "values": [{"measurement": "Average number of bound phospholipids per pentamer", "setting": "[1]; 12 μM lipid, 1 μM ELIC", "result": 2.9}, {"measurement": "Maximum number of bound POPG per pentamer seen in native MS spectra", "setting": "[1]; 12 μM lipid, 1 μM ELIC", "result": "up to nine"}, {"measurement": "Kd", "setting": "[1]; binomial binding model, 32 sites of equal affinity, 1 μM ELIC in C10E5, read-out: Dissociation constant K", "result": 101, "unit": "µM"}, {"measurement": "Fold higher affinity than POPC", "setting": "[1]; from binomial fits", "result": "~2.8", "unit": "×"}, {"measurement": "Fold higher affinity than POPE", "setting": "[1]; from binomial fits", "result": "~ 1.9 ×"}, {"measurement": "N (# sites)", "setting": "[2]", "result": 20}, {"measurement": "N (# sites)", "setting": "[3]", "result": 18}, {"measurement": "N (# sites)", "setting": "[4]", "result": 28}, {"measurement": "N (# sites)", "setting": "[5]", "result": 18}, {"measurement": "N (# sites)", "setting": "[6]", "result": 27}, {"measurement": "N (# sites)", "setting": "[7]", "result": 21}, {"measurement": "Increase in average number of POPG bound compared to WT", "setting": "[8]", "result": "~ 1.7 x"}, {"measurement": "Decrease in average number of bound POPG compared to WT", "setting": "[9]", "result": "13–18%"}, {"measurement": "Decrease in bound phospholipid with each double mutant", "setting": "[10]", "result": "35–45%"}, {"measurement": "Decrease in average number of bound POPG relative to R299Q", "setting": "[10]; 12 μM POPG", "result": "27–32%"}, {"measurement": "Decrease in average number of bound POPG relative to WT", "setting": "[10]; 12 μM POPG", "result": "38–41%"}, {"measurement": "EC50", "setting": "[11]; 1 μM ELIC in C10E5, 32°C for 15 min, read-out: EC50 of thermal stabilizing effect (concentration of POPG for 50% effect)", "result": 52, "unit": "µM"}, {"measurement": "Fraction of thermal stabilizing effect yielded by 32 bound POPG", "setting": "[11]; extrapolation relating POPG binding to thermal stability", "result": "~ 82% and > 80%"}, {"measurement": "Desensitization weighted τ", "setting": "[12]; 12 mole% POPG giant liposomes", "result": "0.93 ± 0.32", "unit": "s"}, {"measurement": "Activation τ", "setting": "[12]; 12 mole% POPG", "result": "112 ± 29", "unit": "ms"}, {"measurement": "Desensitization norm current at 20 s", "setting": "[12]; 12 mole% POPG", "result": "0.05 ± 0.02"}, {"measurement": "Activation τ", "setting": "[12]; 25 mole% POPG", "result": "134 ± 50", "unit": "ms"}, {"measurement": "Desensitization norm current at 20 s", "setting": "[12]; 25 mole% POPG", "result": "0.10 ± 0.04"}, {"measurement": "Desensitization weighted τ", "setting": "[12]; 40 mole% POPG giant liposomes", "result": "2.98 ± 0.24", "unit": "s"}, {"measurement": "Activation τ", "setting": "[12]; 40 mole% POPG", "result": "133 ± 66", "unit": "ms"}, {"measurement": "Desensitization norm current at 20 s", "setting": "[12]; 40 mole% POPG", "result": "0.21 ± 0.03"}]}
